In patent US10736859B2, “Eutectic formulations of cyclobenzaprine hydrochloride and amitriptyline hydrochloride” (Tonix Pharma Holdings Limited, priority 2013, dated 2020):

How the values were obtained:
[1] = DSC, FT-IR/ATR and XRPD compatibility of Cyclobenzaprine HCl with additional excipients, mixed (A) and milled (B) 1:1 mixtures (Example 2); format: physicochemical; conditions: DSC; for Interactions between Cyclobenzaprine HCl and excipients, Mixture 1:1 (mixed): mixture A, mechanical mixing only; for Interactions between Cyclobenzaprine HCl and excipients, Mixture 1:1 (milled): mixture B, ground in agate mortar
Description: As described above, thermal analytical techniques were further used to assess the compatibility of a drug product (tablet) containing Cyclobenzaprine HCl (API). The compatibility assessment was carried out between the API and additional excipients in a 1:1 ratio. The 1:1 API-excipient mixtures were formed in two different ways: first, by mixing only, and second, by strong milling in an agate mortar. The thermal behavior recorded in the two different mixtures were compared with those of the single components. On the basis of thermal events recorded for each component and for the mixtures, the analyses were carried out by investigating the meanings of the peaks recorded by differential scanning calorimetry (DSC) in mixtures between the API and the excipients. Furthermore, in order to define the nature of the interaction, the Fourier Transformate Infra Red Spectroscopy with Total Attenuated Reflectance (FT-IR/ATR) and X-ray powder diffraction (XRPD) of some samples (API, excipient, and mixed and milled mixtures) was carried out and compared.
Aliquots of API and each excipient were weighed in a ratio of 1:1 and ground in an agate mortar. Then, the homogeneous mixtures were analyzed. These sample mixtures were labeled “B”, while the mechanical-only mixtures were labeled “A.”
The DSC heating curves were obtained by TA 821 DSC Mettler instrument under the following conditions: • Heating rate: 10° C./min • Ambient: Nitrogen 30 mL/min • Sample holder: normal open aluminum pan • Temperature range: from 25° C. to 250° C. • Instrument calibration: Indium sample purity 99.999% Fourier Transformate Infra Red Spectroscopy with Total Attenuated Reflectance (FT-IR/ATR)
The FT-IR spectra were collected with a Perkin Elmer spectrum Two instrument with air as background and 4 cm^−1 resolution.
X-ray powder diffraction (XRPD) tests were performed with the ULTIMA IV instrument (Rigaku), laying the sample on a static sample holder. The X-ray focusing slit has a variable width, interlocked with the q value. The X-ray tube has a Copper target, with a current intensity of 40 mA and a voltage of 40 kV. Radiation was generated by the Cockcroft-Walton method, and was constituted by Kα1 (1.540562 Å) and Kα2 (1.544398 Å). The analytical conditions were: • Fixed Time; sampling width 0.02 deg, scanning rate 1.3 s/step, 2 q range 3.35 deg and sample holder; amorphous glass equiangular 9200/2G, 0.2 mm deep. The sample was pressed with a glass plate.

[2] = XRPD of binary Cyclobenzaprine HCl/mannitol mixtures (Example 3); format: physicochemical; conditions: Cyclobenzaprine HCl/mannitol mixtures 30, 50, 65, 75 and 90% API, no thermal treatment
Description: In order to confirm the eutectic formation and to characterize its physical properties, several binary mixtures at different ratios of API-excipient were prepared and analyzed by DSC and by X-ray powder diffraction (XRPD). The mixtures were obtained by gently milling in agate mortar of micronized Cyclobenzaprine HCl and mannitol, in order to obtain homogeneous distribution of the particles. For each DSC heating curve, the onset temperature and the enthalpy were evaluated both for the eutectic contribute and for the excess of component. The recorded values were plotted and a phase diagram between the two components was obtained with a characteristic profile of phase diagrams of eutectic mixtures.
Mixtures also were investigated by XRPD and compared with the patterns of pure components. […] The XRPD patterns obtained in the mixtures, compared with pure components, were plotted in order to confirm the linearity of the peak intensities (cpf) of mannitol and Cyclobenzaprine HCl, and a proportional peak height at characteristic 2 theta angles.
X-ray powder diffraction (XRPD) tests were performed with a ULTIMA IV (Rigaku) instrument, laying the sample on a static sample holder. […] The radiation generated by the Cockcroft-Walton method is constituted by Kα1 (1.540562 Å) and Kα2 (1.544398 Å). […]

- Interactions between Cyclobenzaprine HCl and excipients, Mixture 1:1 (mixed) [1]: Eutectic
- Interactions between Cyclobenzaprine HCl and excipients, Mixture 1:1 (milled) [1]: Eutectic
Structure (SMILES): OC[C@@H](O)[C@@H](O)[C@H](O)[C@H](O)CO [Mannitol]
- Interactions between Cyclobenzaprine HCl and excipients, Mixture 1:1 (mixed) ([1]; listed as mannitol): physical complex interaction peak (eutectic)
- Interactions between Cyclobenzaprine HCl and excipients, Mixture 1:1 (milled) ([1]; listed as mannitol): physical complex interaction peak (eutectic)
- Adduct formation by XRPD [2]: no adduct formation, only a physical eutectic formation
